Laboratory results published in patent US20240109934A1, “ANTIBIOTICS WITH IMPROVED DRUG RESISTANCE PROFILE” (priority 2021, published 2024).
In brackets after ≈: the same amount, converted by molar mass. Where two headings read alike, the source gives them in different places.

Legend:
S. aureus ATCC 29213 [1] = assay: MIC by micro-dilution broth method (CLSI); format: cell-based; conditions: for Antibacterial activity relative to FA: S. aureus ATCC 29213 MIC; for MIC: Staphylococcus aureus, ATCC29213, WT S. aureus ATCC 29213, n = 3, read-out: MIC Without Human Serum
S. aureus ATCC 29213 [2] = assay: Resistance frequency, large inoculum method; format: cell-based; conditions: head-to-head with FA, 2×-32× the MIC
Method: Selection of Resistant Mutants. Resistant mutants were selected via the large inoculum method. Briefly, S. aureus ATCC 29213 (1×10^9 CFU) were plated on 100 mm plates of LB agar containing 4, 2, 1, 0.5, and 0.25 μg/mL.

[3] = system: human foreskin fibroblasts (HFF-1); assay: Cell viability, Alamar Blue assay; format: cell-based; conditions: 72 h incubation, error SEM n = 2, read-out: IC50, Mammalian Toxicity in HFF-1
Method: Cell Culture. HFF-1 cells were obtained from ATCC. HFF-1 cells were grown in DMEM with 15% fetal bovine serum (Gemini Benchmark, Cat #100-106), 100 U/mL penicillin, and 100 μg/mL streptomycin. All cells were cultured at 37° C. in a 5% CO2 environment. Media was prepared by the University of Illinois School of Chemical Sciences Cell Media Facility.
Cell Viability. Cells were harvested, seeded in a 96 well-plate and allowed to adhere. Cells were treated with investigational compounds in DMSO (1% final concentration). Cells were incubated for 72 h before viability was assessed by the Alamar Blue Assay. Raptinal ([…]) was used as a dead control.

S. aureus 29213 = assay: MIC shift with 50% human serum; format: cell-based; conditions: S. aureus 29213, 50% human serum vs none
Method: Antimicrobial Susceptibility Tests. Susceptibility testing was performed in biological triplicate, using the micro-dilution broth method as outlined by the Clinical and Laboratory Standards Institute. […] Human serum (Ultrafiltrate, unspecified gender, 30K Dalton membrane filtered) was purchased from BioIVT (Hicksville, NY).

[4] = Mouse liver microsome stability assay; format: in vitro ADME; conditions: 3 h at 37° C., LC-MS/MS, ± SEM of 3 biological replicates
Method: Mouse Liver Microsome Stability Assay. A mixture of PBS (pH 7.4), NADPH regenerating system solution A (Corning Life Sciences), and NADPH regenerating system solution B (Corning Life Sciences) was incubated at 37° C. in a shaking incubator for 5 min. Next, compound was added in DMSO (final concentration 50 μM, 0.5% DMSO) before ice-cold mouse liver microsomes (Thermo Fisher, male CD-1 mice, pooled) were added (final protein concentration of 1 mg/mL). An aliquot was immediately removed, quenched with an equal volume of 100 μM internal standard and centrifuged at 13,000 rcf for 3 min. The reactions were incubated at 37° C. in a shaking incubator for 3 h. A second aliquot was removed and quenched. Samples were analyzed with the 5500 QTRAP LC/MS/MS system (Sciex, Framingham, MA) in Metabolomics Lab of Roy J. Carver Biotechnology Center, University of Illinois at Urbana-Champaign. Software Analyst 1.6.2 was used for data acquisition and analysis. The 1200 series HPLC system (Agilent Technologies, Santa Clara, CA) includes a degasser, an autosampler, and a binary pump. The LC separation was performed on an Agilent Sb-Aq column (4.6×50 mm, […]) with mobile phase A (0.1% formic acid in water) and mobile phase B (0.1% formic acid in acetonitrile). The flow rate was 0.3 mL/min. The linear gradient was as follows: 0-3 min, 100% A; 10-16 min, 5% A; 16.5-22 min, 100% A. The autosampler was set at 10° C. The injection volume was 1 μL. Mass spectra were acquired under both positive (ion spray voltage was +5500 V) and negative (ion spray voltage was −4500 V) electrospray ionization (ESI). The source temperature was 450° C. The curtain gas, ion source gas 1, and ion source gas 2 were 33, 65, and 60 psi, respectively. Multiple reaction monitoring (MRM) was used for quantitation.

[5] = system: multidrug-resistant clinical isolates of S. aureus; assay: MIC against multidrug-resistant clinical isolates of S. aureus; format: cell-based; conditions: Staphylococcus aureus
[6] = system: multidrug-resistant clinical isolates of E. faecium; assay: MIC against multidrug-resistant clinical isolates of E. faecium; format: cell-based

## CC(=O)O[C@H]1C[C@@]2(C)[C@@H](C[C@@H](O)[C@H]3[C@@]4(C)CC[C@@H](O)[C@@H](C)[C@@H]4CC[C@@]32C)/C1=C(\CCC=C(Cl)Cl)C(=O)O [Compound 15, (Z)-2-((3R,4S,5S,8S,9S,10S,11R,13R,14S,16S)-16-acetoxy-3,11-dihydroxy-4,8,10,14-tetramethylhexadecahydro-17H-cyclopenta[a]phenanthren-17-ylidene)-6,6-dichlorohex-5-enoic acid]
S. aureus ATCC 29213 [1]
  Antibacterial activity relative to FA: modest decreases in potency relative to FA

## CC(=O)O[C@H]1C[C@@]2(C)[C@@H](C[C@@H](O)[C@H]3[C@@]4(C)CC[C@@H](O)[C@@H](C)[C@@H]4CC[C@@]32C)/C1=C(\CCC=C(Br)Br)C(=O)O [Compound 16, (Z)-2-((3R,4S,5S,8S,9S,10S,11R,13R,14S,16S)-16-acetoxy-3,11-dihydroxy-4,8,10,14-tetramethylhexadecahydro-17H-cyclopenta[a]phenanthren-17-ylidene)-6,6-dibromohex-5-enoic acid]
S. aureus ATCC 29213 [2]
  Resistance frequency relative to FA: worse resistance frequency relative to FA
[3]
  IC50: 75 ± 3 µM
[3]; Homo sapiens, HFF-1, 72 h
  IC50: > 50 µM
S. aureus ATCC 29213 [1]
  Antibacterial activity relative to FA: equipotent activity to FA
  MIC: 0.125 µg/mL (≈ 0.193 µM)
S. aureus 29213
  Fold Change Increase in MIC with 50% Human Serum: 32X
[4]
  Metabolic Stability in Mouse Liver Microsomes (percent remaining): 88 ± 2%

## CC(=O)O[C@H]1C[C@@]2(C)[C@@H](C[C@@H](O)[C@H]3[C@@]4(C)CC[C@@H](O)[C@@H](C)[C@@H]4CC[C@@]32C)/C1=C(\CCC=C(I)I)C(=O)O [Compound 17, (Z)-2-((3R,4S,5S,8S,9S,10S,11R,13R,14S,16S)-16-acetoxy-3,11-dihydroxy-4,8,10,14-tetramethylhexadecahydro-17H-cyclopenta[a]phenanthren-17-ylidene)-6,6-diiodohex-5-enoic acid]
S. aureus ATCC 29213 [1]
  Antibacterial activity relative to FA: modest decreases in potency relative to FA

## CC(=O)O[C@H]1C[C@@]2(C)[C@@H](C[C@@H](O)[C@H]3[C@@]4(C)CC[C@@H](O)[C@@H](C)[C@@H]4CC[C@@]32C)/C1=C(\CCC=C(F)F)C(=O)O [Compound 19, (Z)-2-((3R,4S,5S,8S,9S,10S,11R,13R,14S,16S)-16-acetoxy-3,11-dihydroxy-4,8,10,14-tetramethylhexadecahydro-17H-cyclopenta[a]phenanthren-17-ylidene)-6,6-difluorohex-5-enoic acid]
S. aureus ATCC 29213 [1]
  Antibacterial activity relative to FA: modest decreases in potency relative to FA

## C=CCC/C(C(=O)O)=C1/[C@@H](OC(C)=O)C[C@@]2(C)[C@H]1C[C@@H](O)[C@H]1[C@@]3(C)CC[C@@H](O)[C@@H](C)[C@@H]3CC[C@@]12C [Compound 21]
S. aureus ATCC 29213 [1]
  Antibacterial activity relative to FA: modest decreases in potency relative to FA

## CC(=O)O[C@H]1C[C@@]2(C)[C@@H](C[C@@H](O)[C@H]3[C@@]4(C)CC[C@@H](O)[C@@H](C)[C@@H]4CC[C@@]32C)/C1=C(\CCC=C1CCOCC1)C(=O)O [Compound 27, (Z)-2-((3R,4S,5S,8S,9S,10S,11R,13R,14S,16S)-16-acetoxy-3,11-dihydroxy-4,8,10,14-tetramethylhexadecahydro-17H-cyclopenta[a]phenanthren-17-ylidene)-5-(tetrahydro-4H-pyran-4-ylidene)pentanoic acid]
S. aureus ATCC 29213 [2]
  Resistance frequency relative to FA: worse resistance frequency relative to FA
S. aureus ATCC 29213 [1]
  Antibacterial activity relative to FA: equipotent activity to FA
  MIC: 0.125 µg/mL (≈ 0.224 µM)
S. aureus 29213
  Fold Change Increase in MIC with 50% Human Serum: 32X
[4]
  Metabolic Stability in Mouse Liver Microsomes (percent remaining): 86 ± 5%

## CC(=O)O[C@H]1C[C@@]2(C)[C@@H](C[C@@H](O)[C@H]3[C@@]4(C)CC[C@@H](O)[C@@H](C)[C@@H]4CC[C@@]32C)/C1=C(\CCCC(C)C)C(=O)O [Compound 28, (Z)-2-((3R,4S,5S,8S,9S,10S,11R,13R,14S,16S)-16-acetoxy-3,11-dihydroxy-4,8,10,14-tetramethylhexadecahydro-17H-cyclopenta[a]phenanthren-17-ylidene)-6-methylheptanoic acid]
S. aureus ATCC 29213 [1]
  Antibacterial activity relative to FA: modest decreases in potency relative to FA

## CN[C@H](CC(C)C)C(=O)N[C@H]1C(=O)N[C@@H](CC(N)=O)C(=O)N[C@H]2C(=O)N[C@H]3C(=O)N[C@H](C(=O)N[C@H](C(=O)O)c4cc(O)cc(O)c4-c4cc3ccc4O)[C@H](O)c3ccc(c(Cl)c3)Oc3cc2cc(c3O[C@@H]2O[C@H](CO)[C@@H](O)[C@H](O)[C@H]2O[C@H]2C[C@](C)(N)[C@H](O)[C@H](C)O2)Oc2ccc(cc2Cl)[C@H]1O [Vancomycin, vancomycin]
[5]; NRS3, S. aureus NRS3 (NARSA)
  MIC: 4 µg/mL (≈ 2.76 µM)
[5]; NRS4, S. aureus NRS4 (NARSA)
  MIC: 4 µg/mL (≈ 2.76 µM)
[5]; NRS17, S. aureus NRS17 (NARSA)
  MIC: 8 µg/mL (≈ 5.52 µM)
[5]; NRS18, S. aureus NRS18 (NARSA)
  MIC: 4 µg/mL (≈ 2.76 µM)
[5]; NRS21, S. aureus NRS21 (NARSA)
  MIC: 4 µg/mL (≈ 2.76 µM)
[5]; NRS22, S. aureus NRS22 (NARSA)
  MIC: 4 µg/mL (≈ 2.76 µM)
[5]; NRS23, S. aureus NRS23 (NARSA)
  MIC: 4 µg/mL (≈ 2.76 µM)
[5]; NRS24, S. aureus NRS24 (NARSA)
  MIC: 4 µg/mL (≈ 2.76 µM)
[5]; NRS26, S. aureus NRS26 (NARSA)
  MIC: 2 µg/mL (≈ 1.38 µM)
[5]; NRS27, S. aureus NRS27 (NARSA)
  MIC: 4 µg/mL (≈ 2.76 µM)
[5]; NRS29, S. aureus NRS29 (NARSA)
  MIC: 2 µg/mL (≈ 1.38 µM)
[5]; NRS51, S. aureus NRS51 (NARSA)
  MIC: 4 µg/mL (≈ 2.76 µM)
[5]; NRS68, S. aureus NRS68 (NARSA)
  MIC: 4 µg/mL (≈ 2.76 µM)
[5]; NRS73, S. aureus NRS73 (NARSA)
  MIC: 4 µg/mL (≈ 2.76 µM)
[5]; NRS74, S. aureus NRS74 (NARSA)
  MIC: 8 µg/mL (≈ 5.52 µM)
[5]; NRS76, S. aureus NRS76 (NARSA)
  MIC: 4 µg/mL (≈ 2.76 µM)
[5]; NRS77, S. aureus NRS77 (NARSA), no noted resistance
  MIC: 1 µg/mL (≈ 0.69 µM)
[5]; NRS382, S. aureus NRS382 (NARSA)
  MIC: 2 µg/mL (≈ 1.38 µM)
[5]; NRS383, S. aureus NRS383 (NARSA)
  MIC: 0.5 µg/mL (≈ 0.345 µM)
[5]; NRS384, S. aureus NRS384 (NARSA)
  MIC: 1 µg/mL (≈ 0.69 µM)
[5]; S. aureus AR0561 (CDC)
  MIC: 1 µg/mL (≈ 0.69 µM)
[5]; S. aureus AR0562 (CDC)
  MIC: 2 µg/mL (≈ 1.38 µM)
[5]; S. aureus AR0563 (CDC)
  MIC: 1 µg/mL (≈ 0.69 µM)
[5]; S. aureus AR0564 (CDC)
  MIC: 2 µg/mL (≈ 1.38 µM)
[5]; S. aureus AR0565 (CDC)
  MIC: 2 µg/mL (≈ 1.38 µM)
[5]; S. aureus AR0566 (CDC)
  MIC: 0.5 µg/mL (≈ 0.345 µM)
[5]; S. aureus AR0567 (CDC)
  MIC: 1 µg/mL (≈ 0.69 µM)
[5]; S. aureus AR0568 (CDC)
  MIC: 0.5 µg/mL (≈ 0.345 µM)
[5]; S. aureus AR0570 (CDC)
  MIC: 1 µg/mL (≈ 0.69 µM)
[6]; Enterococcus faecium, E. faecium AR0572 (CDC)
  MIC: 512 µg/mL (≈ 353 µM)
[6]; Enterococcus faecium, E. faecium AR0574 (CDC)
  MIC: 0.5 µg/mL (≈ 0.345 µM)
[6]; Enterococcus faecium, E. faecium AR0575 (CDC)
  MIC: 512 µg/mL (≈ 353 µM)
[6]; Enterococcus faecium, E. faecium AR0576 (CDC)
  MIC: 1 µg/mL (≈ 0.69 µM)
[6]; Enterococcus faecium, E. faecium AR0578 (CDC)
  MIC: 0.5 µg/mL (≈ 0.345 µM)
[6]; Enterococcus faecium, E. faecium AR0579 (CDC)
  MIC: 0.5 µg/mL (≈ 0.345 µM)
[6]; VRE with high levels of vancomycin resistance
  MIC: 512 µg/mL (≈ 353 µM)
